# Measurements published in US5317039A, “Cyclopropyl-alanine aryl/alkylsulfide/sulfonyl-terminated amino-diol compounds for treatment of hypertension” (G. D. Searle & Co., priority 1992, dated 1994).
# Square brackets hold non-standard residues; d marks the D form. Peptide text beside a SMILES is read from it. * marks the point of attachment. Sta = CC(C)C[C@H](N)[C@@H](O)CC(=O)O; Isovaleryl = CC(C)CC(=O)*
# How the values were obtained:
# human renin = target: T1, human renin (Homo sapiens, UniProt P00797); assay: Human Renin Inhibition in vitro; type: biochemical; conditions: pH 7.4, 2 h at 37° C., human plasma, angiotensin I by radioimmunoassay
# T1 construct: purchased National Institute for Biological Standards, London
# T1 sequence (P00797 67-406): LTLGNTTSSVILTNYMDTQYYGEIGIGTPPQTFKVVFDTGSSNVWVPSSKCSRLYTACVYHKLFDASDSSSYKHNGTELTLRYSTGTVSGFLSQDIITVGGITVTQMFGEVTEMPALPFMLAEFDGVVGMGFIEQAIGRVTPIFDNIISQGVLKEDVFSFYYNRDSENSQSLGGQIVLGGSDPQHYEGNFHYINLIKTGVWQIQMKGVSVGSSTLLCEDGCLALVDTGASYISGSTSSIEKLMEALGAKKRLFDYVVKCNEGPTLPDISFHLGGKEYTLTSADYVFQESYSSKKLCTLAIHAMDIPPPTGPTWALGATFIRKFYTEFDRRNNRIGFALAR
# Description: Compounds of Formula I were evaluated as inhibitors of human renin in an in vitro assay, as follows: This human renin inhibition test has been previously described in detail [Papaioannou et al., Clinical and Experimental Hypertension, A7(9), 1243-1257 (1985)]. Human renin was obtained from the National Institute for Biological Standards, London. An incubation mixture was prepared containing the following components: in a total volume of 0.25 mL: 100 mM Tris-acetate buffer at pH 7.4, 25×10^-6 Goldblatt units of renin, 0.05 mL of plasma from human volunteers taking oral contraceptives, 6.0 mM Na-EDTA, 2.4 mM phenylmethyl sulfonyl fluoride, 1.5 mM 8-hydroxyquinoline, 0.4 mg/mL bovine serum albumin (BSA), and 0.024 mg/mL neomycin sulfate. This mixture was incubated for two hours at 37° C. in the presence or absence of renin inhibitors. The produced angiotensin I was determined by radioimmunoassay (New England Nuclear kit). Test compounds to be assayed were dissolved in DMSO and diluted with 100 mM Tris-acetate buffer at pH 7.4 containing 0.5% BSA to the appropriate concentration. The final concentration of organic solvent in the reaction mixture was less than 1%. Control incubations at 37° C. were used to correct for effects of organic solvent on renin activity.
# pepsin = conditions: cited from earlier work
# hog renin = conditions: nephrectomized rats, after injection of hog renin; cited from earlier work
# cathepsin D = conditions: cited from earlier work
# renin = conditions: cited from earlier work
Structure (SMILES),IC50 (human renin) [nM],inhibitor of pepsin (pepsin),reduce blood pressure in vivo (hog renin),inhibitor of cathepsin D (cathepsin D),inhibitor of renin (renin)
CC(C)C[C@H](O)[C@H](O)[C@H](CC1CCCCC1)NC(=O)[C@H](CC1CC1)NC(=O)C(Cc1ccccc1)CS(=O)(=O)C(C)(C)C (stereo partly drawn) [Example 1],0.3,,,,
CC(C)C[C@H](O)[C@H](O)[C@H](CC1CCCCC1)NC(=O)[C@H](CC1CC1)NC(=O)C(CSC(C)(C)C)Cc1ccccc1 (stereo partly drawn) [Example 2],2.7,,,,
CC(C)CC(=O)N[C@H](C(=O)N[C@H](C(=O)N[C@@H](CC(C)C)[C@@H](O)CC(=O)N[C@@H](C)C(=O)N[C@@H](CC(C)C)[C@@H](O)CC(=O)O)C(C)C)C(C)C [pepstatin] (Isovaleryl-VV[Sta]A[Sta]-OH),,inhibitor,reduce blood pressure in vivo,inhibitor,inhibitor
